According to patent US20080260896A1 (priority 2007, published 2008):
Where two headings read alike, the source gives them in different places. Marks after values point to notes of the source that are not given here.

Assays:
[1] = male, crossbred, cattle, in vivo
Description: A subset of ten cattle (5 from each treatment) were used for baseline and withdrawal sampling of rumen fluid and blood plasma for residual methanol quantification. […] Withdrawal samples were collected from the same subset of animals.

[2] = Crude glycerin as an energy source in swine nursery diets; type: in vivo; conditions: nursery pigs
Description: In yet another embodiment, crude glycerin was evaluated as an energy source in swine nursery diets. A total of 165 pigs (Monsanto Choice Genetics, EB x GP37; initial weight: 7.14 kg) were used to determine the effect of […] on performance of nursery pigs. Pigs were blocked by initial weight to one of five dietary treatments with seven pens per treatment and four or five pigs per pen. […] The basal diets were close to a typical corn-SBM diet with no animal fat added. […] Dietary protein, lysine (amino acid ratios), major minerals, and vitamins were equal across treatments within each phase. […] Dietary lysine levels were high enough to […] to observe energy effect. Feeding programs of Momentum grind-mix option (15-25, 25-35 and 35-50 lbs. BW) was the base program. The trial had four phases with 7, 7, 7, and 9 days, respectively. Before the pigs started the trial, the pigs were fed a common diet until the pigs weighed about 15.5 pounds. Medication choice for diets in this embodiment was Carbadox. The assumed ME value for crude glycerin was based on preliminary research data from Europe. […] Feed efficiency data was regressed against daily ME intake to estimate ME content for crude glycerin. […] The crude glycerin's energy value should be similar to or lower than corn.

[3] = Crude glycerin in finishing cattle diets: carcass merit; type: in vivo, Angus-cross steers; conditions: for Adjusted Carcass Live Wt / Backfat Depth / Choice 0 / Choice - / Dress / Hot Carcass Weight / KPH Fat / Live Weight / Marbling Score / Ribeye Area / YG 2 / YG 3 / YG 4 / Yield Grade / Carcass Value: 10% DM glycerin; for Carcass Value: calculated from carcass weight, premiums and discounts
Description: All cattle were adapted on a common 4-step transition prior to initiation of the evaluation. Cattle were blocked by weight (4 blocks) with four pens per treatment (9-10 head/pen). […] Individual weights were collected at 28-day intervals throughout with steers terminated on three harvest dates (days on feed 116 to 153 days) based on weight and condition. Six monthly periods and cumulative (d 1-116 and 1-153) periods were analyzed. […] Carcass value was calculated using actual carcass weight and associated premiums and discounts for quality and yield grades.

[4] = Crude glycerin as pellet binder: pellet mill current usage and pellet durability index (PDI); type: physicochemical
Excerpt: In this embodiment, the crude glycerin [FROM SHEET WHEN GET FROM NEIL] […] Two corn/soy diets, one with low fat and one with high fat, and two high fiber diets, one with low fat and one with high fat, were formulated to provide the four treatment groups. […] Table 1 references diet formulations tested. The “HFP” referred to in Table 1 refers to a High Fat Product available from Archer Daniels Midland Company, Decatur, Ill. […] [table]

[5] = Lactating Holstein cows fed heat stress product with and without glycerin; type: in vivo; conditions: heat stress product + 454 g/d glycerin
Excerpt: Forty-eight lactating Holstein cows (twelve per treatment) were used in a randomized complete block design to determine the effect of feed additives on production efficiency. […] Treatments 2 and 4 will be the focus of this example. Diets were corn silage based and formulated to be iso-nitrogenous. Cows were housed in a free-stall barn with access to individual stalls. Training for Calan door use was initiated in mid-May, the standardization period occurred in early June and the treatment period started in late June and continued through early August. Feed was mixed and delivered once daily and fed behind electronic Calan doors, allowing individual intake to be determined. Ad libitum intakes were adjusted to achieve orts of 7-10% daily. Cows were milked twice daily at 0400 and 1500. Feed intake, milk yield and composition, body temperature, and body weight changes were monitored.

[6] = Gross energy of crude glycerin sample; type: physicochemical; conditions: test crude glycerin sample with 14.8% moisture
[7] = DDGS:Soy Hulls 10:0 diet (Treatment 2)
[8] = DDGS:Soy Hulls 30:15 diet (Treatment 4)

OCC(O)CO [crude glycerin, glycerin]
animals with measurable methanol in rumen fluid [1]: 50%
animals with measurable methanol in rumen fluid ([1]; 16 day): 100%
methanol in rumen fluid ([1]; 16 day): ≤ 23.77 ppm
daily gain ([2]; phase 4, increasing dietary crude glycerin): decreased in phase 4 in a linear and quadratic manner
Feed intake ([2]; phases 2, 3, 4 and cumulative phases 1-2, 1-3, 1-4, increasing dietary crude glycerin): linearly increased
daily gain ([2]; up to 12% crude glycerin): did not affect daily gain
Adjusted Carcass Live Wt [3, 7]: 567.9^a kg
Backfat Depth [3, 7]: 1.40 cm
Choice 0 [3, 7]: 66.7%
Choice - [3, 7]: 94.4%
Dress [3, 7]: 61.59%
Hot Carcass Weight [3, 7]: 357.7^a kg
KPH Fat [3, 7]: 1.90%
Live Weight [3, 7]: 581.0^a kg
Marbling Score [3, 7]: 623.1
Ribeye Area [3, 7]: 85.49 sq cm
YG 2 [3, 7]: 44.4%
YG 3 [3, 7]: 55.6%
YG 4 [3, 7]: 0.0%
Yield Grade [3, 7]: 3.01
Carcass Value [3, 7]: 1038.6^a
Adjusted Carcass Live Wt [3, 8]: 551.4^ab kg
Backfat Depth [3, 8]: 1.48 cm
Choice 0 [3, 8]: 65.0%
Choice - [3, 8]: 95.0%
Dress [3, 8]: 61.65%
Hot Carcass Weight [3, 8]: 347.4^ab kg
KPH Fat [3, 8]: 1.87%
Live Weight [3, 8]: 563.3^ab kg
Marbling Score [3, 8]: 630.1
Ribeye Area [3, 8]: 84.86 sq cm
YG 2 [3, 8]: 45.0%
YG 3 [3, 8]: 55.0%
YG 4 [3, 8]: 0.0%
Yield Grade [3, 8]: 3.07
Carcass Value [3, 8]: 1008.5^ab
Adjusted Carcass Live Wt ([3]; main effect over both diets): 559.6 kg
Backfat Depth ([3]; main effect over both diets): 1.44 cm
Choice 0 ([3]; main effect over both diets): 65.8%
Choice - ([3]; main effect over both diets): 94.7%
Dress ([3]; main effect over both diets): 61.62%
Hot Carcass Weight ([3]; main effect over both diets): 352.6 kg
KPH Fat ([3]; main effect over both diets): 1.88%
Live Weight ([3]; main effect over both diets): 572.2 kg
Marbling Score ([3]; main effect over both diets): 626.6
Ribeye Area ([3]; main effect over both diets): 85.18 sq cm
YG 2 ([3]; main effect over both diets): 44.7%
YG 3 ([3]; main effect over both diets): 55.3%
YG 4 ([3]; main effect over both diets): 0.0%
Yield Grade ([3]; main effect over both diets): 3.04
Carcass Value ([3]; main effect over both diets): 1023.5
final and hot carcass weight, ribeye area, carcass value versus control ([3]; steers fed 10% crude glycerin): tended (P<0.10) to have greater final and hot carcass weight, ribeye area, and resulting carcass value
PDI ([4]; Corn/Soy High Fat diet, crude glycerin 2.5%): 54
PDI ([4]; Corn/Soy High Fat diet, crude glycerin 5.0%): 66
PDI ([4]; Corn/Soy Low Fat diet, crude glycerin 2.5%): 89
PDI ([4]; Corn/Soy Low Fat diet, crude glycerin 5.0%): 93
PDI ([4]; High Fiber High Fat diet, crude glycerin 2.5%): 89
PDI ([4]; High Fiber High Fat diet, crude glycerin 5.0%): 91
PDI ([4]; High Fiber Low Fat diet, crude glycerin 2.5%): 98
PDI ([4]; High Fiber Low Fat diet, crude glycerin 5.0%): 98
NE Balance [5]: 6.15 mcal/day
NE intake [5]: 38.74 mcal/day
NE milk [5]: 27.07 mcal/day
Body Weight change ([5]; 56 days): greater
Milk fat ([5]; 56 days): 3.90%
Milk fat, milk protein, and energy corrected milk yield ([5]; 56 days): tended greater
Milk production ([5]; 56 days): not affected by treatment group
Milk protein ([5]; 56 days): 2.93%
Retained net energy for lactation and/or body weight gain ([5]; 56 days): significantly greater
Milk ([5]; 56 days, all cows): 38.53 kg/day
DMI ([5]; 56 days, listed as Glycerin): 23.49 kg/day
DMI ([5]; 56 days, listed as glycerin): not different among treatment groups
Milk, Multiparous ([5]; multiparous cows): 36.63 kg/day
Milk, Primiparous ([5]; primiparous cows): 40.42 kg/day
ECM (energy corrected milk) ([5]; (.3246 × kg milk) + (12.86 × kg fat) + (7.04 × kg protein)): 39.40 kg/day
BW change ([5]; difference in body weights using a weekly rolling average): 0.779 kg/day
Gross energy [6]: 3845 kcal/kg
